In US20220017516A1, “LOX INHIBITORS” (THE INSTITUTE OF CANCER RESEARCH: ROYAL CANCER HOSPITAL, priority 2018, published 2022):

Tests used:
Type in all cases: in vivo, mice
[1] = system: MMTV-PyMT mammary tumours; assay: MMTV-PyMT transgenic mouse breast cancer model, primary tumour volume; details: T/C of average tumour volume; 200 mg/kg po qd; p<0.05
Description: (§1) All procedures involving animals were approved by the Animal Welfare and Ethical Review Body of the Institute of Cancer Research and Cancer Research UK Manchester Institute in accordance with National Home Office regulations under the Animals (Scientific Procedures) Act 1986 and according to the guidelines of the Committee of the National Cancer Research Institute Tumour size was determined by caliper measurements of tumour length, width and depth and volume was calculated as volume=0.5236×length×width×depth (mm).
MMTV-PyMT (Guy et al, 1992) (FVB) female mice were randomized by non-statistical methods to LOX inhibitor treatment groups from day 70 post-birth, when animals had no detectable tumour. Mice were treated daily by oral gavage with LOX inhibitor in vehicle, or daily vehicle (5% DMSO/2.5% Tween20 in water) by oral gavage. Tumour size was determined unblinded by caliper measurements of tumour length, width and depth and volume was calculated as 0.5236×length×width×depth (mm). […]
(§2) For therapeutic efficacy assessment, the ratio of average tumour volume between compound treated and vehicle control treated (T/C) is calculated. […] The efficacy of LOX inhibitors described in this invention, as measured by T/C in breast cancer models is shown in Table 4 and is significant (p<0.05) for all the data presented.

[2] = system: MDA-MB-231 human breast adenocarcinoma; assay: MDA-MB-231 xenografts, primary tumour volume; details: T/C of average tumour volume; 200 mg/kg po qd; p<0.05
Description: as §1
MDA-MB-231 xenografts. […] Tumours and weights are measured twice weekly using calipers and the animals can be imaged using non invasive method by bioluminescence using IVIS 200 imaging machine, weekly using 150 mg/kg luciferin administrate intraperitoneal or subcutaneous. […] Frozen samples kept at −80 degree centigrade until being analyzed and the fixed samples stained according to desired marker.
as §2

[3] = system: MMTV-PyMT lung metastases; assay: MMTV-PyMT transgenic mouse breast cancer model, lung metastases quantification; details: T/C of average lung metastases number; 200 mg/kg po qd; p<0.05
Description: MMTV-PyMT (Guy et al, 1992) (FVB) female mice were randomized by non-statistical methods to LOX inhibitor treatment groups from day 70 post-birth, when animals had no detectable tumour. Mice were treated daily by oral gavage with LOX inhibitor in vehicle, or daily vehicle (5% DMSO/2.5% Tween20 in water) by oral gavage. Tumour size was determined unblinded by caliper measurements of tumour length, width and depth and volume was calculated as 0.5236×length×width×depth (mm). In all experiments, mice were humanely killed and mammary tumours and lungs were collected when the primary tumours reached ethical limits or signs of ill health.
For lung metastases quantification, all mouse tissue samples were fixed in 10% formalin (Sigma) and embedded in paraffin. Samples were sectioned and hematoxylin and eosin (H&E) stained. Samples were imaged with a Leica SCN400 slide scanner. […] Lung metastases number was counted and area was measured using ImageScope. […] The ratio of average metastases surface between compound treated and vehicle control treated (T/C) is calculated. The ratio of average metastases numbers between compound treated and vehicle control treated (T/C) is also calculated. […] The antimetastatic efficacy of LOX inhibitors described in this invention, as measured by T/C in a model of breast cancer metastasising to lungs is shown in Table 4 and is significant (p<0.05) for all the data presented.

CCOc1ccc(N2C[C@@H]3C[C@H]2CN3C(=O)CS(=O)(=O)CCN)cc1 [drawing 226]
MMT-PyMT breast transgenic model - primary tumour (T/C) [1]: 0.6 | MDA-MB-231 human breast adenocarcinoma - primary tumour (T/C) [2]: 0.54 | MMT-PyMT breast transgenic model - metastases a) Count (T/C) [3]: a) 0.14
